Active and inactive are the calls of the source. The calls are words filed in the database; no cut-off is given here.
Key:
J774.A1 = assay: (§1) Antiinflammatory activity in mouse J774A1 cells assessed as LPS-induced TNFalpha production at 10 uM incubated 2 hrs prior to LPS challenge measured after 24 hrs by ELISA relative to vehicle-treated control; format: functional
[1] = target: T1, 11-beta-hydroxysteroid dehydrogenase 1 (Homo sapiens, UniProt P28845); assay: Inhibition of 11beta-HSD1 in human liver microsomes using [3H]-cortisone as substrate assessed as formation of cortisol after 60 to 90 mins by radiometric analysis; design: species or system Microsome
Target sequence in this assay (P28845 whole entry): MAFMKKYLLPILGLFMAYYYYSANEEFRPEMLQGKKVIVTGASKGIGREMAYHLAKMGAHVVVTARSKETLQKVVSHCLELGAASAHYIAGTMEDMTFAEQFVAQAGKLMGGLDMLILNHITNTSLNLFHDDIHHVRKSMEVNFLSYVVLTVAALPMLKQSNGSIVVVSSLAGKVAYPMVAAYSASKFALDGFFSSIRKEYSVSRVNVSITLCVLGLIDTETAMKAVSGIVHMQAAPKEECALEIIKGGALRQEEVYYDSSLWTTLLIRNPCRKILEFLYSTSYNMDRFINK

[2] = target: T1, 11-beta-hydroxysteroid dehydrogenase 1; assay: Inhibition of human 11beta-HSD1 transfected in CHOP cells; format: cell-based
Target sequence in this assay (P28845 whole entry): as above

[3] = target: T2, 11-beta-hydroxysteroid dehydrogenase type 2 (Homo sapiens, UniProt P80365); assay: (§2) Inhibition of 11beta-HSD2 in human kidney microsomes using [3H]-cortisol as substrate assessed as formation of cortisone at 100 uM after 30 mins by radiometric analysis relative to control; design: species or system Microsome
T2 sequence (P80365 whole entry): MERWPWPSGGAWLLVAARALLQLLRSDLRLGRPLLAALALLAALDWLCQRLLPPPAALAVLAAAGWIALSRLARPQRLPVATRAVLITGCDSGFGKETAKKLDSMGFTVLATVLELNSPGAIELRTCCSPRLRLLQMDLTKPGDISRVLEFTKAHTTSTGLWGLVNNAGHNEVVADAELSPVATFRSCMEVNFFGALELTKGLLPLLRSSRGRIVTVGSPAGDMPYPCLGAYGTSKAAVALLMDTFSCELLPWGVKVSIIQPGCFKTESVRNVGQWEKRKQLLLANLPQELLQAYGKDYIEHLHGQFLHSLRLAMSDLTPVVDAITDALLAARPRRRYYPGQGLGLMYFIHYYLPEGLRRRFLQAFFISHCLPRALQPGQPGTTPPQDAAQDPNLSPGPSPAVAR

[4] = target: T3, 11-beta-hydroxysteroid dehydrogenase 1 (Rattus norvegicus, UniProt P16232); assay: Inhibition of 11beta-HSD1 in Sprague-Dawley rat leydig cells […]
T3 sequence (P16232 whole entry): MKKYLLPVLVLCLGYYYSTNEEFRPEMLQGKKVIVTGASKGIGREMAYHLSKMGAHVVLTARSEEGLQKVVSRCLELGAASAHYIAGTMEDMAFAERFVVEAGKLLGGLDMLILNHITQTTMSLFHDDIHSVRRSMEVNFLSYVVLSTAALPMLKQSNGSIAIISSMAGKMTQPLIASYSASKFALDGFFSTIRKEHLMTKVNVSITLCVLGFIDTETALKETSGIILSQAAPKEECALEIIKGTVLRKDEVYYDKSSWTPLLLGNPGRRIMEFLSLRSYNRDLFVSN

[5] = target: T3, 11-beta-hydroxysteroid dehydrogenase 1; assay: Inhibition of 11beta-HSD1 in rat testis microsomes using [3H]-11-DHC as substrate assessed as formation of CORT after 60 to 90 mins by radiometric analysis; design: species or system Microsome
[6] = target: T1, 11-beta-hydroxysteroid dehydrogenase 1; assay: Inhibition of 11beta-HSD1 in human liver microsomes using [3H]-cortisone as substrate assessed as formation of cortisol at 100 uM after 60 to 90 mins by radiometric analysis relative to control; details: Microsome
Target sequence in this assay (P28845 whole entry, looked up): as the sequence (P28845 whole entry) above

[7] = target: 11-beta-hydroxysteroid dehydrogenase 1 (Rattus norvegicus) (UniProt P16232); assay: Inhibition of 11beta-HSD1 in Sprague-Dawley rat leydig cells […] relative to control; details: 100 uM
11-beta-hydroxysteroid dehydrogenase 1 (Rattus norvegicus), sequence (P16232 whole entry, looked up): as the sequence (P16232 whole entry) above

[8] = as §1; format: functional; details: J774.A1
[9] = target: T4, 11-beta-hydroxysteroid dehydrogenase type 2 (Rattus norvegicus) (UniProt P50233); assay: Inhibition of 11beta-HSD2 in rat kidney microsomes using [3H]-CORT as substrate assessed as formation of 11-DHC at 100 uM after 30 mins by radiometric analysis relative to control; details: Microsome
T4 sequence (whole entry): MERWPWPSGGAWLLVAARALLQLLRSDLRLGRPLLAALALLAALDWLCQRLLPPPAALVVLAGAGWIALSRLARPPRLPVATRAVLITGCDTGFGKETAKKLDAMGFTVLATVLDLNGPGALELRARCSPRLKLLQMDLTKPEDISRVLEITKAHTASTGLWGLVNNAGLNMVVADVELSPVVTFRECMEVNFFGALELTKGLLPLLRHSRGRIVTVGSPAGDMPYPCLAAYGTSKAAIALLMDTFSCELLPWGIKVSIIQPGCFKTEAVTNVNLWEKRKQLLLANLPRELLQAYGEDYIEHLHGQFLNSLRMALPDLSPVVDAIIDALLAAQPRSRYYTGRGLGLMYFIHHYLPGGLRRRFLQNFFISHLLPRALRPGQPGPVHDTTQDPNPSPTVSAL

[10] = target: T1, 11-beta-hydroxysteroid dehydrogenase 1; assay: Inhibition of human 11beta-HSD1 transfected in CHOP cells at 100 uM relative to control; format: cell-based
Target sequence in this assay (P28845 whole entry, looked up): as the sequence (P28845 whole entry) above

[11] = target: T5, 11-beta-hydroxysteroid dehydrogenase type 2 (Homo sapiens) (UniProt P80365); assay: as §2; details: Microsome
T5 sequence (whole entry): T2 sequence (P80365 whole entry)

[12] = target: 11-beta-hydroxysteroid dehydrogenase 1 (Rattus norvegicus) (UniProt P16232); assay: Inhibition of 11beta-HSD1 in rat testis microsomes using [3H]-11-DHC as substrate assessed as formation of CORT at 100 uM after 60 to 90 mins by radiometric analysis relative to control; details: Microsome
[13] = target: T1, 11-beta-hydroxysteroid dehydrogenase 1; assay: Ratio of curcumin IC50 to compound IC50 for human 11beta-HSD1 transfected in CHOP cells; format: cell-based
Target sequence in this assay (P28845 whole entry, looked up): as the sequence (P28845 whole entry) above

[14] = Cytotoxicity against rat leydig cells; format: cell-based
[15] = target: T1, 11-beta-hydroxysteroid dehydrogenase 1; assay: Competitive inhibition of 11beta-HSD1 in human liver microsomes at 1 to 10 uM by Lineweaver-burk plot analysis in presence of cortisone; details: Microsome
Target sequence in this assay (P28845 whole entry, looked up): as the sequence (P28845 whole entry) above

[16] = Cytotoxicity against CHOp cells; format: cell-based, Cricetulus griseus; details: chinese hamster

Structure (SMILES): COc1cc(/C=C/C(=O)CC(=O)/C=C/c2ccc(O)c(OC)c2)ccc1O [CURCUMIN]
- inhibition (J774.A1): inactive
- IC50 [1]: 16 µM
- IC50 [2]: 4.5 µM
- IC50 [3]: 15.7 µM
- IC50 [4]: 3.92 µM
- IC50 [5]: 4.12 µM

Structure (SMILES): CCOc1ccc(/C=C2\CC/C(=C\c3ccc(OCC)cc3)C2=O)cc1
- inhibition [6]: 14%
- inhibition [7]: 27%
- inhibition at 10 µM [8]: < 50%
- inhibition [9]: 10%
- inhibition [10]: 14%
- inhibition [11]: 6%
- inhibition [12]: 0%

Structure (SMILES): O=C1/C(=C/c2ccc(F)cc2)CC/C1=C\c1ccc(F)cc1
- inhibition (J774.A1): inactive
- inhibition [9]: 9%
- IC50 [1]: 17.4 µM
- Ratio IC50 [13]: 9
- IC50 [2]: 0.31 µM
- inhibition [11]: 26%
- IC50 [4]: 3.47 µM
- IC50 [5]: 22 µM

Structure (SMILES): O=C(/C=C/c1ccccc1Br)/C=C/c1ccccc1Br
- Activity [14]: Non-toxic
- inhibition at 10 µM [8]: > 50%
- inhibition [9]: 39%
- IC50 [1]: 0.529 µM
- Ratio IC50 [13]: 9
- IC50 [2]: 0.115 µM
- inhibition [11]: 53%
- IC50 [4]: 0.129 µM
- inhibition [15]: Active
- Activity [16]: Non-toxic
- IC50 [5]: 0.288 µM

Structure (SMILES): O=C1/C(=C/c2ccc(F)cc2)CCC/C1=C\c1ccc(F)cc1
- inhibition (J774.A1): inactive
- inhibition [9]: 16%
- IC50 [1]: 2.97 µM
- Ratio IC50 [13]: 9
- IC50 [2]: 0.263 µM
- inhibition [11]: 24%
- IC50 [4]: 1.11 µM
- IC50 [5]: 13.5 µM

Structure (SMILES): O=C1/C(=C/c2ccccc2Br)CCC/C1=C\c1ccccc1Br
- Activity [14]: Non-toxic
- inhibition at 10 µM [8]: > 50%
- inhibition [9]: 39%
- IC50 [1]: 1.11 µM
- Ratio IC50 [13]: 9
- IC50 [2]: 0.346 µM
- inhibition [11]: 33%
- IC50 [4]: 0.148 µM
- Activity [16]: Non-toxic
- IC50 [5]: 0.218 µM
